Measured values as given in ChEMBL document CHEMBL1201862, “PubChem BioAssay data set” (2004).
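Tested at 5 concentrations; 48 h exposure; 96-well plates; endpoints linearly interpolated, else capped at highest concentration. Abbreviation: GI50, concentration required for 50% inhibition of growth.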 Calls of active or inactive are those of the source. No stated cut-off is given here; in the data, active = GI50 up to about 1.1 µM and inactive = higher.

Columns and labels:
Test in all cases: growth of human tumour cells (NCI), 48 h
786-0 = test system: 786-0
A549 = test system: A549
ACHN = test system: ACHN
BT-549 = test system: BT-549
CCRF-CEM = test system: CCRF-CEM
COLO 205 = test system: COLO 205
DU-145 = test system: DU-145
EKVX = test system: EKVX
HCC 2998 = test system: HCC 2998
HCT-116 = test system: HCT-116
HCT-15 = test system: HCT-15
HL-60 = test system: HL-60
HOP-62 = test system: HOP-62
HOP-92 = test system: HOP-92
HT-29 = test system: HT-29
Hs-578T = test system: Hs-578T
IGROV-1 = test system: IGROV-1
K562 = test system: K562
KM12 = test system: KM12
M14 = test system: M14
MCF7 = test system: MCF7
MDA-MB-231 = test system: MDA-MB-231
MDA-MB-435 = test system: MDA-MB-435
MDA-N = test system: MDA-N
MOLT-4 = test system: MOLT-4
Malme-3M = test system: Malme-3M
NCI-H226 = test system: NCI-H226
NCI-H23 = test system: NCI-H23
NCI-H460 = test system: NCI-H460
NCI-H522 = test system: NCI-H522
NCI/ADR-RES = test system: NCI/ADR-RES
OVCAR-3 = test system: OVCAR-3
OVCAR-4 = test system: OVCAR-4
OVCAR-5 = test system: OVCAR-5
OVCAR-8 = test system: OVCAR-8
PC-3 = test system: PC-3
RPMI-8226 = test system: RPMI-8226
RXF 393 = test system: RXF 393
SF-268 = test system: SF-268
SF-295 = test system: SF-295
SF-539 = test system: SF-539
SK-MEL-28 = test system: SK-MEL-28
SK-MEL-5 = test system: SK-MEL-5
SK-OV-3 = test system: SK-OV-3
SN12C = test system: SN12C
SNB-19 = test system: SNB-19
SNB-75 = test system: SNB-75
SR = test system: SR
SW-620 = test system: SW-620
T47D = test system: T47D
TK-10 = test system: TK-10
U-251 = test system: U-251
UACC-257 = test system: UACC-257
UACC-62 = test system: UACC-62

SMILES: CCNC1=C(NC(=O)CCl)C(=O)c2ccccc2C1=O
- GI50 (786-0): 34.4 µM (inactive)
- GI50 (A549): 33.7 µM (inactive)
- GI50 (ACHN): 18 µM (inactive)
- GI50 (BT-549): > 10 µM (inactive)
- GI50 (CCRF-CEM): 20 µM (inactive)
- GI50 (COLO 205): > 10 µM (inactive)
- GI50 (DU-145): > 10 µM (inactive)
- GI50 (EKVX): 16 µM (inactive)
- GI50 (HCC 2998): > 10 µM (inactive)
- GI50 (HCT-116): 18.4 µM (inactive)
- GI50 (HCT-15): 18.5 µM
- GI50 (HL-60): 34.1 µM (inactive)
- GI50 (HOP-62): 16.5 µM (inactive)
- GI50 (HOP-92): 21 µM (inactive)
- GI50 (HT-29): > 10 µM (inactive)
- GI50 (Hs-578T): 24.2 µM (inactive)
- GI50 (IGROV-1): > 10 µM (inactive)
- GI50 (K562): 25.5 µM (inactive)
- GI50 (KM12): 17.1 µM (inactive)
- GI50 (M14): 20.9 µM (inactive)
- GI50 (MCF7): 22.4 µM (inactive)
- GI50 (MDA-MB-231): 21.5 µM (inactive)
- GI50 (MDA-MB-435): 19.1 µM (inactive)
- GI50 (MDA-N): 15.6 µM (inactive)
- GI50 (MOLT-4): 18.2 µM (inactive)
- GI50 (Malme-3M): 19.9 µM (inactive)
- GI50 (NCI-H226): 22 µM (inactive)
- GI50 (NCI-H23): 19 µM (inactive)
- GI50 (NCI-H460): 23.7 µM (inactive)
- GI50 (NCI-H522): 15.1 µM (inactive)
- GI50 (NCI/ADR-RES): 23.6 µM (inactive)
- GI50 (OVCAR-3): 17.7 µM (inactive)
- GI50 (OVCAR-4): 17 µM (inactive)
- GI50 (OVCAR-5): 19.6 µM (inactive)
- GI50 (OVCAR-8): 20.1 µM (inactive)
- GI50 (PC-3): 16 µM (inactive)
- GI50 (RPMI-8226): 34 µM (inactive)
- GI50 (RXF 393): 16.7 µM (inactive)
- GI50 (SF-268): 18.1 µM (inactive)
- GI50 (SF-295): 19.4 µM (inactive)
- GI50 (SF-539): 21.7 µM (inactive)
- GI50 (SK-MEL-28): 17.6 µM (inactive)
- GI50 (SK-MEL-5): 16.7 µM (inactive)
- GI50 (SK-OV-3): > 10 µM (inactive)
- GI50 (SN12C): 17.9 µM (inactive)
- GI50 (SNB-19): 26.7 µM (inactive)
- GI50 (SNB-75): > 10 µM (inactive)
- GI50 (SR): 32.8 µM (inactive)
- GI50 (SW-620): 25.8 µM (inactive)
- GI50 (T47D): 22.3 µM (inactive)
- GI50 (TK-10): 17.7 µM (inactive)
- GI50 (U-251): 20.3 µM (inactive)
- GI50 (UACC-257): > 10 µM (inactive)

SMILES: CCn1c(-c2ccc(F)cc2)nc2c1C(=O)c1ccccc1C2=O
- GI50 (786-0): > 100 µM (inactive)
- GI50 (A549): > 100 µM (inactive)
- GI50 (ACHN): > 100 µM (inactive)
- GI50 (BT-549): > 100 µM (inactive)
- GI50 (CCRF-CEM): > 100 µM (inactive)
- GI50 (COLO 205): > 100 µM (inactive)
- GI50 (DU-145): > 100 µM (inactive)
- GI50 (EKVX): > 100 µM (inactive)
- GI50 (HCC 2998): > 100 µM (inactive)
- GI50 (HCT-116): > 100 µM (inactive)
- GI50 (HCT-15): > 100 µM
- GI50 (HL-60): > 100 µM (inactive)
- GI50 (HOP-62): > 100 µM (inactive)
- GI50 (HOP-92): > 100 µM (inactive)
- GI50 (HT-29): 75.5 µM (inactive)
- GI50 (Hs-578T): > 100 µM (inactive)
- GI50 (IGROV-1): > 100 µM (inactive)
- GI50 (K562): > 100 µM (inactive)
- GI50 (KM12): > 100 µM (inactive)
- GI50 (M14): 71 µM (inactive)
- GI50 (MCF7): > 100 µM (inactive)
- GI50 (MDA-MB-231): > 100 µM (inactive)
- GI50 (MDA-MB-435): > 100 µM (inactive)
- GI50 (MDA-N): > 100 µM (inactive)
- GI50 (MOLT-4): > 100 µM (inactive)
- GI50 (Malme-3M): 45.1 µM (inactive)
- GI50 (NCI-H226): 91 µM (inactive)
- GI50 (NCI-H23): > 100 µM (inactive)
- GI50 (NCI-H460): > 100 µM (inactive)
- GI50 (NCI-H522): > 100 µM (inactive)
- GI50 (NCI/ADR-RES): > 100 µM (inactive)
- GI50 (OVCAR-3): 33.8 µM (inactive)
- GI50 (OVCAR-4): > 100 µM (inactive)
- GI50 (OVCAR-5): > 100 µM (inactive)
- GI50 (OVCAR-8): > 100 µM (inactive)
- GI50 (PC-3): > 100 µM (inactive)
- GI50 (RPMI-8226): > 100 µM (inactive)
- GI50 (RXF 393): 54 µM (inactive)
- GI50 (SF-268): > 100 µM (inactive)
- GI50 (SF-295): > 100 µM (inactive)
- GI50 (SF-539): > 100 µM (inactive)
- GI50 (SK-MEL-28): > 100 µM (inactive)
- GI50 (SK-MEL-5): > 100 µM (inactive)
- GI50 (SK-OV-3): 20.7 µM (inactive)
- GI50 (SN12C): > 100 µM (inactive)
- GI50 (SNB-19): > 100 µM (inactive)
- GI50 (SNB-75): > 100 µM (inactive)
- GI50 (SR): > 100 µM (inactive)
- GI50 (SW-620): > 100 µM (inactive)
- GI50 (T47D): > 100 µM (inactive)
- GI50 (TK-10): > 100 µM (inactive)
- GI50 (U-251): > 100 µM (inactive)
- GI50 (UACC-257): > 100 µM (inactive)
- GI50 (UACC-62): > 100 µM (inactive)
